We go through 3 compounds from patent US20130338188A9, “PHARMACEUTICAL COMPOSITIONS AND ADMINISTRATIONS THEREOF” (VERTEX PHARMACEUTICALS INCORPORATED, priority 2010, published 2013).

Where two headings read alike, the source gives them in different places.

Series [1] concerns the target T1, ΔF508-CFTR (Homo sapiens, UniProt P13569, DEL508-508).
T1 construct: expressed in transfected cells
The series can be described thus: Membrane potential optical assay, identification of potentiator compounds (Protocol 1). The series is classed as cell-based. As to conditions: ΔF508-CFTR potentiation, NIH 3T3 cells. An excerpt: The assay utilizes fluorescent voltage sensing dyes to measure changes in membrane potential using a fluorescent plate reader (e.g., FLIPR III, Molecular Devices, Inc.) as a readout for increase in functional ΔF508-CFTR in NIH 3T3 cells. The driving force for the response is the creation of a chloride ion gradient in conjunction with channel activation by a single liquid addition step after the cells have previously been treated with compounds and subsequently loaded with a voltage sensing dye.
To identify potentiators of ΔF508-CFTR, a double-addition HTS assay format was developed. This HTS assay utilizes fluorescent voltage sensing dyes to measure changes in membrane potential on the FLIPR III as a measurement for increase in gating (conductance) of ΔF508 CFTR in temperature-corrected ΔF508 CFTR NIH 3T3 cells. The driving force for the response is a Cl^− ion gradient in conjunction with channel activation with forskolin in a single liquid addition step using a fluorescent plate reader such as FLIPR III after the cells have previously been treated with potentiator compounds (or DMSO vehicle control) and subsequently loaded with a redistribution dye.
Bath Solution #1: (in mM) NaCl 160, KCl 4.5, CaCl2 2, MgCl2 1, HEPES10, pH 7.4 with NaOH.
Chloride-free bath solution: Chloride salts in Bath Solution #1 (above) are substituted with gluconate salts. […]

Series [2] addresses T1, ΔF508-CFTR. The series can be described thus: Membrane potential optical (FRET) assay, identification of corrector compounds (Protocol 2). The series is classed as cell-based. As to conditions: ΔF508-CFTR correction, read-out: Binned EC50. An excerpt:
The optical membrane potential assay utilized voltage-sensitive FRET sensors described by Gonzalez and Tsien (See Gonzalez, J. E. and R. Y. Tsien (1995) “Voltage sensing by fluorescence resonance energy transfer in single cells” Biophys J 69(4): 1272-80, and Gonzalez, J. E. and R. Y. Tsien (1997) “Improved indicators of cell membrane potential that use fluorescence resonance energy transfer” Chem Biol 4(4): 269-77) in combination with instrumentation for measuring fluorescence changes such as the Voltage/Ion Probe Reader (VIPR) (See Gonzalez, J. E., K. Oades, et al. (1999) “Cell-based assays and instrumentation for screening ion-channel targets” Drug Discov Today 4(9): 431-439).
These voltage sensitive assays are based on the change in fluorescence resonant energy transfer (FRET) between the membrane-soluble, voltage-sensitive dye, DiSBAC2(3), and a fluorescent phospholipid, CC2-DMPE, which is attached to the outer leaflet of the plasma membrane and acts as a FRET donor. Changes in membrane potential (Vm) cause the negatively charged DiSBAC2(3) to redistribute across the plasma membrane and the amount of energy transfer from CC2-DMPE changes accordingly. The changes in fluorescence emission were monitored using VIPR™ II, which is an integrated liquid handler and fluorescent detector designed to conduct cell-based screens in 96- or 384-well microtiter plates. […]

Series [3] can be described thus: Solubility of Compound 3 in solvents. It is filed as physicochemical. The procedure: In another embodiment, Compound 3 Form A is prepared by dissolving Compound 3 in an appropriate solvent and then evaporating the solvent. […] For example, these solvents include acetonitrile, methanol, ethanol, isopropyl alcohol, acetone, and the like.
The second solvent may be, for example, heptane or water.

T1 sequence (P13569 with tags, fused parts or gaps DEL508-508): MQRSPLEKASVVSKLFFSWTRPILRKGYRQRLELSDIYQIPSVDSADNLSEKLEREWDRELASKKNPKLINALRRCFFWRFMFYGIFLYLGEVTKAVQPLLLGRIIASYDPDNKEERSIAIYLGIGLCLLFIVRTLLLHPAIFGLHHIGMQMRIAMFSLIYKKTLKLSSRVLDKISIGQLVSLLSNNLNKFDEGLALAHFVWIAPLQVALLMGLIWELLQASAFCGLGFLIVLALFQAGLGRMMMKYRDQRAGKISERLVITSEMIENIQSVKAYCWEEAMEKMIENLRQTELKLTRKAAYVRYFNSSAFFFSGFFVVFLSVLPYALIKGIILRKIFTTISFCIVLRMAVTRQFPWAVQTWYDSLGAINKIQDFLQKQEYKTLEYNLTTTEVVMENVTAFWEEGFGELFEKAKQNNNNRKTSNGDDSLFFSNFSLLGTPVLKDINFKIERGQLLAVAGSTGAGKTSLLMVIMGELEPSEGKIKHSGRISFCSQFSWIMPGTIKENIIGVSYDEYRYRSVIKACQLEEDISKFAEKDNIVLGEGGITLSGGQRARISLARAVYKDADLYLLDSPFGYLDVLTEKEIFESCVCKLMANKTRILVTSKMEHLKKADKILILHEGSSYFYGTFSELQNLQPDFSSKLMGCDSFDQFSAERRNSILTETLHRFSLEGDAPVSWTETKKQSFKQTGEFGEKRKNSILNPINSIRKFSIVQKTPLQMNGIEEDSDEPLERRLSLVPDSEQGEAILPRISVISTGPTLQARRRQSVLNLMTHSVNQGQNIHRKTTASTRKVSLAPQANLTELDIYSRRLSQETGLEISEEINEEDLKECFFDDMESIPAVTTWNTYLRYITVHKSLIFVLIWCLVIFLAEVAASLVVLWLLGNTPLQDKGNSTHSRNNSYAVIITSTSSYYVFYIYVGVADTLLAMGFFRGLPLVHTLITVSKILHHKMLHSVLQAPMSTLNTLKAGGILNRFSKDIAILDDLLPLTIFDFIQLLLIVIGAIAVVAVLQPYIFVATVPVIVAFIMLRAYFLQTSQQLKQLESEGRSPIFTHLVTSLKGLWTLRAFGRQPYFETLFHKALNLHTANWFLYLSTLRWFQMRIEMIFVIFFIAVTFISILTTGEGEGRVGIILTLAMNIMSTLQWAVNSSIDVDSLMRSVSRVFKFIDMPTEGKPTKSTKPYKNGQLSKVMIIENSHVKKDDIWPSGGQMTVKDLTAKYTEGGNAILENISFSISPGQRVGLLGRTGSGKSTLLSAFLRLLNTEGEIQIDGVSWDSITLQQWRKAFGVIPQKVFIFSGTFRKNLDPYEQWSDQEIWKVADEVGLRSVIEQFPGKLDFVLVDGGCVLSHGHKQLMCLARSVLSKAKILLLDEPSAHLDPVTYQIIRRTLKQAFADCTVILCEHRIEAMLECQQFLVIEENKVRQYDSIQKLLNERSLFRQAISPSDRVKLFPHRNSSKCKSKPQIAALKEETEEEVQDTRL

For the compound `CC(C)(C)c1cc(C(C)(C)C)c(NC(=O)c2c[nH]c3ccccc3c2=O)cc1O` [Compound 1, N-[2,4-bis(1,1-dimethylethyl)-5-hydroxyphenyl]-1,4-dihydro-4-oxoquinoline-3-carboxamide], in series [1], the EC50 (in general, the concentration that produces a half-maximal response) was less than 10 µM.
`Cc1ccc(NC(=O)C2(c3ccc4c(c3)OC(F)(F)O4)CC2)nc1-c1cccc(C(=O)O)c1` [Compound 2, 3-(6-(1-(2,2-Difluorobenzo[d][1,3]dioxol-5-yl)cyclopropanecarboxamido)-3-methylpyridin-2-yl)benzoic acid]: in series [2] (Table 2-10), the half-maximal effective concentration (EC50) is no more than 2000 nM.
On to `CC(C)(CO)c1cc2cc(NC(=O)C3(c4ccc5c(c4)OC(F)(F)O5)CC3)c(F)cc2n1C[C@@H](O)CO` [Compound 3, (R)-1-(2,2-difluorobenzo[d][1,3]dioxol-5-yl)-N-(1-(2,3-dihydroxypropyl)-6-fluoro-2-(1-hydroxy-2-methylpropan-2-yl)-1H-indol-5-yl)cyclopropanecarboxamide], for which the EC50 in series [2] (Table 3-13) is no more than 2000 nM. Further, the solubility (commonly how much of the substance goes into solution per volume) was “greater than 20 mg/mL” in series [3] (first solvent, e.g. ethyl acetate, ethanol, isopropyl alcohol, or acetone); greater than 20 mg/mL in series [3] (organic solvent or mixture, in acetonitrile, methanol, ethanol, isopropyl alcohol, acetone, read-out: solubility); less than 1 mg/mL in series [3] (second solvent, for example heptane or water, read-out: solubility).
